According to ChEMBL document CHEMBL3885861, “Open TG-GATES”:

Species on record: Rattus norvegicus
Assay: Open TG-GATES - Regimen: Single
Format: toxicity, organism-based, Sprague-Dawley
Set-up: regimen Single, gender Male, age 6 weeks
Conditions: in vivo, po, 0 mg/kg, route gavage, dose level Control; for Bas / Eos / Fbg / Hb / Ht / Lym / MCH / MCHC / Mono / Neu / PT / Plat / RBC / Ret / WBC: tissue Blood; for KIDNEY_L / KIDNEY_R / KIDNEY_TOTAL: tissue Kidney; for LIVER: tissue Liver; for ALP / ALT / AST / BUN / CRE / Ca / DBIL / IP / K / LDH / Na / PL / RALB / TBIL / TC / TG / TP / gamma-GTP: tissue Plasma

SMILES: CCC(C)(C)C(=O)O[C@H]1C[C@@H](C)C=C2C=C[C@H](C)[C@H](CC[C@@H]3C[C@@H](O)CC(=O)O3)[C@H]21 [SIMVASTATIN]
- TERMINAL_BW (3 h): 203.4 g
- Bas (3 h): 0%
- Eos (3 h): 1%
- Fbg (3 h): 216.8 mg/dL
- Hb (3 h): 12.9 g/dL
- Ht (3 h): 39.1%
- Lym (3 h): 83.6%
- MCH (3 h): 21.5 pg
- MCHC (3 h): 32.8%
- Mono (3 h): 6%
- Neu (3 h): 9.6%
- PT (3 h): 11 s
- Plat (3 h): 101.5 x10_4/uL
- RBC (3 h): 596.2 x10_4/ul
- Ret (3 h): 7.8%
- WBC (3 h): 114.1 x10_2/uL
- KIDNEY_L (3 h): 0.9 g
- KIDNEY_R (3 h): 1 g
- KIDNEY_TOTAL (3 h): 1.9 g
- LIVER (3 h): 9.7 g
- ALP (3 h): 839.8 IU/L
- ALT (3 h): 35.4 IU/L
- AST (3 h): 61.6 IU/L
- BUN (3 h): 14.4 mg/dL
- CRE (3 h): 0.6 mg/dL
- Ca (3 h): 11 mg/dL
- DBIL (3 h): 0.02 mg/dL
- IP (3 h): 9.1 mg/dL
- K (3 h): 4.4 meq/L
- LDH (3 h): 82.2 IU/L
- Na (3 h): 138.8 meq/L
- PL (3 h): 147.4 mg/dL
- RALB (3 h): 3.5 g/dL
- TBIL (3 h): 0.4 mg/dL
- TC (3 h): 83.8 mg/dL
- TG (3 h): 63.6 mg/dL
- TP (3 h): 5.6 g/dL
- gamma-GTP (3 h): 1.6 IU/L
- TERMINAL_BW (6 h): 199.1 g
- Bas (6 h): 0%
- Eos (6 h): 1%
- Fbg (6 h): 208.2 mg/dL
- Hb (6 h): 13 g/dL
- Ht (6 h): 39.5%
- Lym (6 h): 79.8%
- MCH (6 h): 21.8 pg
- MCHC (6 h): 32.8%
- Mono (6 h): 6.2%
- Neu (6 h): 13%
- PT (6 h): 11.8 s
- Plat (6 h): 111.5 x10_4/uL
- RBC (6 h): 597.2 x10_4/ul
- Ret (6 h): 9.2%
- WBC (6 h): 109.4 x10_2/uL
- KIDNEY_L (6 h): 0.9 g
- KIDNEY_R (6 h): 0.9 g
- KIDNEY_TOTAL (6 h): 1.7 g
- LIVER (6 h): 8.5 g
- ALP (6 h): 648 IU/L
- ALT (6 h): 29 IU/L
- AST (6 h): 60.4 IU/L
- CRE (6 h): 0.5 mg/dL
- Ca (6 h): 10.8 mg/dL
- DBIL (6 h): 0.046 mg/dL
- IP (6 h): 9.4 mg/dL
- K (6 h): 4.5 meq/L
- LDH (6 h): 77 IU/L
- Na (6 h): 137.8 meq/L
- PL (6 h): 120.4 mg/dL
- RALB (6 h): 3.6 g/dL
- TBIL (6 h): 0.4 mg/dL
- TC (6 h): 70.6 mg/dL
- TG (6 h): 47.8 mg/dL
- TP (6 h): 5.5 g/dL
- gamma-GTP (6 h): 1 IU/L
- TERMINAL_BW (9 h): 197.5 g
- Bas (9 h): 0%
- Eos (9 h): 1%
- Fbg (9 h): 215.2 mg/dL
- Hb (9 h): 13.2 g/dL
- Ht (9 h): 40.2%
- Lym (9 h): 85.6%
- MCHC (9 h): 32.9%
- Mono (9 h): 5.4%
- Neu (9 h): 8.2%
- PT (9 h): 11.7 s
- Plat (9 h): 114.5 x10_4/uL
- RBC (9 h): 605.4 x10_4/ul
- Ret (9 h): 10.2%
- WBC (9 h): 96.4 x10_2/uL
- KIDNEY_L (9 h): 0.9 g
- KIDNEY_R (9 h): 0.9 g
- KIDNEY_TOTAL (9 h): 1.8 g
- LIVER (9 h): 8.4 g
- ALP (9 h): 810.4 IU/L
- ALT (9 h): 29.2 IU/L
- AST (9 h): 58.4 IU/L
- BUN (9 h): 12.2 mg/dL
- CRE (9 h): 0.6 mg/dL
- Ca (9 h): 10.9 mg/dL
- DBIL (9 h): 0.04 mg/dL
- IP (9 h): 10.9 mg/dL
- K (9 h): 4.6 meq/L
- LDH (9 h): 68.2 IU/L
- Na (9 h): 137.6 meq/L
- PL (9 h): 110.8 mg/dL
- RALB (9 h): 3.7 g/dL
- TBIL (9 h): 0.4 mg/dL
- TC (9 h): 61.8 mg/dL
- TG (9 h): 34.2 mg/dL
- TP (9 h): 5.2 g/dL
- gamma-GTP (9 h): 1.8 IU/L
- TERMINAL_BW (24 h): 215.6 g
- Bas (24 h): 0%
- Eos (24 h): 1%
- Fbg (24 h): 222.6 mg/dL
- Hb (24 h): 13 g/dL
- Ht (24 h): 40.1%
- Lym (24 h): 82.8%
- MCHC (24 h): 32.5%
- Mono (24 h): 8.2%
- Neu (24 h): 8.4%
- Plat (24 h): 113.8 x10_4/uL
- RBC (24 h): 614 x10_4/ul
- Ret (24 h): 9.5%
- KIDNEY_L (24 h): 1 g
- KIDNEY_R (24 h): 1 g
- KIDNEY_TOTAL (24 h): 2 g
- ALP (24 h): 887.6 IU/L
- ALT (24 h): 38.8 IU/L
- AST (24 h): 65 IU/L
- BUN (24 h): 18.6 mg/dL
- CRE (24 h): 0.6 mg/dL
- Ca (24 h): 10.8 mg/dL
- DBIL (24 h): 0.05 mg/dL
- IP (24 h): 8 mg/dL
- K (24 h): 4.6 meq/L
- LDH (24 h): 97.8 IU/L
- Na (24 h): 139.4 meq/L
- PL (24 h): 144.8 mg/dL
- RALB (24 h): 3.7 g/dL
- TBIL (24 h): 0.4 mg/dL
- TC (24 h): 79.6 mg/dL
